According to patent US9833497B2, “Human originated EGF domain proteins and use of the same” (CHENGDU SOURCEBIO LIMITED-LIABILITY COMPANY, priority 2013, dated 2017):

Columns and labels:
Assay type in all cases: cell-based
Aeromonas hydrophila = assay: MIC against Gram-negative bacteria: Aeromonas hydrophila; conditions: 5×10^5 CFU/mL; for MIC against A. hydrophila: Aeromonas hydrophila
In short: (§1)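 First, colonies from LB agar were grown in LB at 37° C, 185 rpm, to McFarland turbidity 0.5, then centrifuged and resuspended in fresh LB. Next, wells received 5×10^5 CFU/mL bacteria plus two-fold serially diluted EGF domain protein (triplicate). Finally, plates were shaken at 37° C and the no-growth concentration taken as MIC.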

Citrobacter diversus = assay: MIC against Gram-negative bacteria: Citrobacter diversus; conditions: 5×10^5 CFU/mL; for MIC against C. diversus: Citrobacter diversus
In short: as §1

Proteus vulgaris = assay: MIC against Gram-negative bacteria: Proteus vulgaris; conditions: 5×10^5 CFU/mL; for MIC against P. vulgaris: Proteus vulgaris
In short: as §1

Pseudomonas aeruginosa = assay: MIC against Gram-negative bacteria: Pseudomonas aeruginosa; conditions: 5×10^5 CFU/mL; for MIC against P. aeruginosa: Pseudomonas aeruginosa
In short: as §1

Klebsiella pneumonia = assay: MIC against Gram-negative bacteria: Klebsiella pneumonia; conditions: 5×10^5 CFU/mL; for MIC against K. pneumonia: Klebsiella pneumonia
In short: as §1

Proteus mirabilis = assay: MIC against Gram-negative bacteria: Proteus mirabilis; conditions: 5×10^5 CFU/mL; for MIC against P. mirabilis: Proteus mirabilis
In short: as §1

Serratia marcescens = assay: MIC against Gram-negative bacteria: Serratia marcescens; conditions: 5×10^5 CFU/mL; for MIC against S. marcescens: Serratia marcescens
In short: as §1

E. coli DH5α = assay: Antibacterial activity: MIC and growth curve against E. coli DH5α in 96-well plate; conditions: minimal inhibitory concentration against E. coli DH5α; 96-well plate, 5×10^5 CFU/mL, 37° C., judged after 8 h
In short: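 Log-phase DH5α (OD600 about 0.5, 37° C, 185 rpm in LB) was pelleted, resuspended in fresh LB and seeded at 5×10^5 CFU/mL with recombinant protein at 50, 25 and 12.5 μg/mL (two-fold series), in triplicate. Plates were shaken at 175 rpm, 37° C, and OD600 was read every 30 min. MIC was the lowest concentration with no growth.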

Enterobacter cloacae = assay: MIC against Gram-negative bacteria: Enterobacter cloacae; conditions: 5×10^5 CFU/mL; for MIC against E. cloacae: Enterobacter cloacae
In short: as §1

E. coli BL21 = assay: MIC against Gram-negative bacteria: E. coli BL21; conditions: 5×10^5 CFU/mL
In short: as §1

Moraxella catarrhalis = assay: MIC against Gram-negative bacteria: Moraxella catarrhalis; conditions: 5×10^5 CFU/mL; for MIC against M. catarrhalis: Moraxella catarrhalis
In short: as §1

[1] = E. coli BL21, 10 h cultivation at 37° C.
[2] = E. coli BL21, 96-well plate, 37° C., 10 h

Substance	MIC against A. hydrophila (Aeromonas hydrophila; 10 h cultivation at 37° C.) [µg/mL]	MIC against C. diversus (Citrobacter diversus; 10 h cultivation at 37° C.) [µg/mL]	MIC against P. vulgaris (Proteus vulgaris; 10 h cultivation at 37° C.) [µg/mL]	MIC against P. aeruginosa (Pseudomonas aeruginosa; 10 h cultivation at 37° C.) [µg/mL]	MIC against K. pneumonia (Klebsiella pneumonia; 10 h cultivation at 37° C.) [µg/mL]	MIC against P. mirabilis (Proteus mirabilis; 10 h cultivation at 37° C.) [µg/mL]	MIC against S. marcescens (Serratia marcescens; 10 h cultivation at 37° C.) [µg/mL]	MIC (E. coli DH5α) [µg/mL]	MIC against E. cloacae (Enterobacter cloacae; 10 h cultivation at 37° C.) [µg/mL]	MIC against E. coli BL21 (E. coli BL21; [1]) [µg/mL]	MIC against M. catarrhalis (Moraxella catarrhalis; 10 h cultivation at 37° C.) [µg/mL]	MIC A. hydrophila (Aeromonas hydrophila; 96-well plate, 37° C., 10 h) [µg/mL]	MIC C. diversus (Citrobacter diversus; 96-well plate, 37° C., 10 h) [µg/mL]	MIC P. vulgaris (Proteus vulgaris; 96-well plate, 37° C., 10 h) [µg/mL]	MIC P. aeruginosa (Pseudomonas aeruginosa; 96-well plate, 37° C., 10 h) [µg/mL]	MIC K. pneumonia (Klebsiella pneumonia; 96-well plate, 37° C., 10 h) [µg/mL]	MIC P. mirabilis (Proteus mirabilis; 96-well plate, 37° C., 10 h) [µg/mL]	MIC S. marcescens (Serratia marcescens; 96-well plate, 37° C., 10 h) [µg/mL]	MIC E. cloacae (Enterobacter cloacae; 96-well plate, 37° C., 10 h) [µg/mL]	MIC E. coli BL21 (E. coli BL21; 96-well plate, 37° C., 10 h) [µg/mL]	further results
PRT1406 (EADCIDPGCSNHGVCIHGECHCSPGWGGSNCE; listed as Homo sapiens)	50	12.5	50	25	12.5	12.5	50	25	25	50	50	–	–	–	–	–	–	–	–	–	–
PRT1343 (VFHECFFNPCHNSGTCQQLGRGYVCLCPLGYTGLKCE; listed as Homo sapiens)	–	–	–	–	–	–	–	12.5	–	–	–	–	–	–	–	–	–	–	–	–	MIC against A. hydrophila (Aeromonas hydrophila; 96-well plate, 37° C., 10 h): 12.5 µg/mL; MIC against C. diversus (Citrobacter diversus; 96-well plate, 37° C., 10 h): 50 µg/mL; MIC against P. vulgaris (Proteus vulgaris; 96-well plate, 37° C., 10 h): 25 µg/mL; MIC against P. aeruginosa (Pseudomonas aeruginosa; 96-well plate, 37° C., 10 h): 50 µg/mL; MIC against K. pneumonia (Klebsiella pneumonia; 96-well plate, 37° C., 10 h): 25 µg/mL; MIC against P. mirabilis (Proteus mirabilis; 96-well plate, 37° C., 10 h): 12.5 µg/mL; MIC against S. marcescens (Serratia marcescens; 96-well plate, 37° C., 10 h): 50 µg/mL; MIC against E. cloacae (Enterobacter cloacae; 96-well plate, 37° C., 10 h): 25 µg/mL; MIC against E. coli BL21 (E. coli BL21; [2]): 25 µg/mL; MIC against M. catarrhalis (Moraxella catarrhalis; 96-well plate, 37° C., 10 h): 25 µg/mL
PRT1268 (CAVNNGGCDRTCKDTSTGVHCSCPVGFTLQLDGKTC; listed as Homo sapiens)	–	–	–	–	–	–	–	50	–	–	–	–	–	–	–	–	–	–	–	–	MIC against A. hydrophila (Aeromonas hydrophila; 96-well plate, 37° C., 10 h): 50 µg/mL; MIC against C. diversus (Citrobacter diversus; 96-well plate, 37° C., 10 h): 12.5 µg/mL; MIC against P. vulgaris (Proteus vulgaris; 96-well plate, 37° C., 10 h): 25 µg/mL; MIC against P. aeruginosa (Pseudomonas aeruginosa; 96-well plate, 37° C., 10 h): 50 µg/mL; MIC against K. pneumonia (Klebsiella pneumonia; 96-well plate, 37° C., 10 h): 12.5 µg/mL; MIC against P. mirabilis (Proteus mirabilis; 96-well plate, 37° C., 10 h): 12.5 µg/mL; MIC against S. marcescens (Serratia marcescens; 96-well plate, 37° C., 10 h): 50 µg/mL; MIC against E. cloacae (Enterobacter cloacae; 96-well plate, 37° C., 10 h): 25 µg/mL; MIC against E. coli BL21 (E. coli BL21; [2]): 12.5 µg/mL; MIC against M. catarrhalis (Moraxella catarrhalis; 96-well plate, 37° C., 10 h): 50 µg/mL
PRT1476 (DVDECSLKPSICGTAVCKNIPGDFECECPEGYRYNLKSKSCE; listed as Homo sapiens)	50	12.5	12.5	12.5	50	50	25	12.5	12.5	25	25	–	–	–	–	–	–	–	–	–	–
PRT215 (YTQCTDGYEWDPVRQQCKDIDECDIVPDACKGGMKCVNHYGGYLCL; listed as Homo sapiens)	–	–	–	–	–	–	–	25	–	–	–	–	–	–	–	–	–	–	–	–	MIC (μg/mL) A. hydrophila (Aeromonas hydrophila; A. hydrophila, 10 h cultivation at 37° C.): 12.5 µg/mL; MIC (μg/mL) C. diversus (Citrobacter diversus; C. diversus, 10 h cultivation at 37° C.): 25 µg/mL; MIC (μg/mL) P. vulgaris (Proteus vulgaris; P. vulgaris, 10 h cultivation at 37° C.): 12.5 µg/mL; MIC (μg/mL) P. aeruginosa (Pseudomonas aeruginosa; P. aeruginosa, 10 h cultivation at 37° C.): 25 µg/mL; MIC (μg/mL) K. pneumonia (Klebsiella pneumonia; K. pneumonia, 10 h cultivation at 37° C.): 100 µg/mL; MIC (μg/mL) P. mirabilis (Proteus mirabilis; P. mirabilis, 10 h cultivation at 37° C.): 25 µg/mL; MIC (μg/mL) S. marcescens (Serratia marcescens; S. marcescens, 10 h cultivation at 37° C.): 12.5 µg/mL; MIC (μg/mL) E. cloacae (Enterobacter cloacae; E. cloacae, 10 h cultivation at 37° C.): 25 µg/mL; MIC (μg/mL) E. coli BL21 (E. coli BL21; [1]): 12.5 µg/mL; MIC (μg/mL) M. catarrhalis (Moraxella catarrhalis; M. catarrhalis, 10 h cultivation at 37° C.): 12.5 µg/mL
PRT712 (GSNSCQLNNGGCSQLCLPTSETTRTCMCTVGYYLQKNRMSCQ; listed as Homo sapiens)	–	–	–	–	–	–	–	25	–	–	–	25	12.5	25	50	25	50	12.5	50	12.5	MIC M. catarrhalis (Moraxella catarrhalis; 96-well plate, 37° C., 10 h): 25 µg/mL
PRT740 (GLNDCMHNNGQCGQLCLAIPGGHRCGCASHYTLDPSSRNCS; listed as Homo sapiens)	–	–	–	–	–	–	–	12.5	–	–	–	12.5	12.5	12.5	50	12.5	25	25	50	12.5	MIC M. catarrhalis (Moraxella catarrhalis; 96-well plate, 37° C., 10 h): 50 µg/mL
PRT1408 (NEICSVDCGSHGVCMGGTCRCEEGWTGPACNQ; listed as Homo sapiens)	12.5	12.5	12.5	25	12.5	12.5	25	25	25	12.5	12.5	–	–	–	–	–	–	–	–	–	–
PRT1356 (KEQRCPSDCHGQGRCVDGQCICHEGFTGLDCG; listed as Homo sapiens)	25	12.5	25	12.5	50	50	12.5	12.5	25	50	25	–	–	–	–	–	–	–	–	–	–
PRT741 (SAHPCARDNGGCSHICIAKGDGTPRCSCPVHLVLLQNLLTCG; listed as Homo sapiens)	–	–	–	–	–	–	–	12.5	–	–	–	12.5	50	25	12.5	25	50	12.5	50	50	MIC M. catarrhalis (Moraxella catarrhalis; 96-well plate, 37° C., 10 h): 12.5 µg/mL
